Here are results for eight compounds from PubChem BioAssay (NCI).

Values joined by “and” are separate entries in the source; they are usually repeats but may differ in a detail not shown here. Equal entries are not always repeated.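 Results reflect a 48-hour exposure of cells in 96-well plates to compound at five concentrations. GI50 is the concentration that inhibits growth by half. The concentration for full growth arrest is given as TGI.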

Test systems include CCRF-CEM leukemia; HCT-116 colon; HL-60(TB) leukemia; MCF7 breast; MDA-MB-231 breast; PC-3 prostate; SK-MEL-2 melanoma; TK-10 renal; UACC-257 melanoma; UO-31 renal.
Holding throughout (test): NCI-60 cell line screen, 48 h

With `Cc1ccc2c(c1)c(Sc1ccc(C(=O)NO)cc1)c1n2CN(C)CC1`, the GI50 in the assay with CCRF-CEM leukemia was 1.3 µM; with HCT-116 colon it was 1.59 µM; in the assay on HL-60(TB) leukemia, 2.35 µM; in the assay with MCF7 breast, 2.44 µM; with MDA-MB-231 breast it was 1.51 µM; in the assay on PC-3 prostate, 1.5 µM. The GI50 is 1.88 µM with SK-MEL-2 melanoma, 2.19 µM in the assay with TK-10 renal, 1.48 µM with UACC-257 melanoma and 2.15 µM in the assay with UO-31 renal. In addition, the TGI with CCRF-CEM leukemia turned out to be 9.52 µM; in the assay with HCT-116 colon, 3.54 µM; in the assay with HL-60(TB) leukemia, 6.4 µM; in the assay with MCF7 breast, 11.5 µM; with MDA-MB-231 breast, 4.13 µM; with PC-3 prostate, 3.77 µM. Besides, the TGI came to 4.21 µM in the assay on SK-MEL-2 melanoma, 6.73 µM with TK-10 renal, 5.37 µM with UACC-257 melanoma and 9.1 µM in the assay on UO-31 renal.
In the case of `N=C(N)SCc1c2ccccc2c(CSC(=N)N)c2ccccc12`, the GI50 is 4.7 µM in the assay on CCRF-CEM leukemia; 2.59 µM with HCT-116 colon; 4.06 µM in the assay with HL-60(TB) leukemia; 1.54 µM in the assay with MCF7 breast; 12 µM in the assay on MDA-MB-231 breast; 10.3 µM in the assay on PC-3 prostate. In addition, the GI50 in the assay on SK-MEL-2 melanoma was 18 µM; in the assay with TK-10 renal, 22.3 µM; with UACC-257 melanoma it was 23.2 µM; with UO-31 renal, 14.1 µM. Besides, the TGI in the assay with CCRF-CEM leukemia amounted to 36.1 µM; in the assay with HCT-116 colon, 16.6 µM; with HL-60(TB) leukemia, 23.3 µM; in the assay on MCF7 breast it was 15.5 µM; in the assay with MDA-MB-231 breast it was 45.1 µM; with PC-3 prostate, 23.9 µM. The TGI in the assay on SK-MEL-2 melanoma amounted to 41.3 µM; with TK-10 renal, 45.3 µM; in the assay with UACC-257 melanoma it was 45 µM; in the assay on UO-31 renal, 34.5 µM.
As for `O=C(/C(=C/c1ccc([N+](=O)[O-])cc1)SCc1ccc(Cl)cc1)c1ccc(F)cc1`, the GI50 is 1.97 µM with CCRF-CEM leukemia; 1.39 µM in the assay on HCT-116 colon; 2.82 µM in the assay on HL-60(TB) leukemia; 1.56 µM with MCF7 breast; 2.14 µM with MDA-MB-231 breast; 2.12 µM in the assay with PC-3 prostate. Further, the GI50 was 7.9 µM in the assay with SK-MEL-2 melanoma, 12.9 µM in the assay with TK-10 renal, 11.5 µM in the assay with UACC-257 melanoma and 1.96 µM in the assay with UO-31 renal. Moreover, the TGI was greater than 100 µM with CCRF-CEM leukemia; 2.92 µM in the assay on HCT-116 colon; 11.1 µM in the assay with HL-60(TB) leukemia; 4.78 µM in the assay with MCF7 breast; 5.98 µM with MDA-MB-231 breast; 5.74 µM with PC-3 prostate. Moreover, the TGI in the assay with SK-MEL-2 melanoma turned out to be 23.1 µM; with TK-10 renal it was 29.5 µM; in the assay with UACC-257 melanoma, 26.1 µM; with UO-31 renal, 13.6 µM.
`C[C@@H](NC(=O)/C(C#N)=C/c1ccc([N+](=O)[O-])cc1)c1ccccc1`: the GI50 with CCRF-CEM leukemia is 2.56 µM; in the assay on HCT-116 colon, 1.89 µM; with HL-60(TB) leukemia, 2.42 µM; with MCF7 breast, 2.41 µM; in the assay with MDA-MB-231 breast, 2.3 µM; in the assay on PC-3 prostate, 2.34 µM. In addition, the GI50 in the assay with SK-MEL-2 melanoma is 3.3 µM; with TK-10 renal, 5.07 µM; in the assay with UACC-257 melanoma, 2.38 µM; in the assay on UO-31 renal it was 0.559 µM. Further, the TGI with CCRF-CEM leukemia was greater than 38.9 µM; in the assay with HCT-116 colon, 3.79 µM; in the assay on HL-60(TB) leukemia, 5.51 µM; in the assay on MCF7 breast, 7.65 µM; in the assay with MDA-MB-231 breast, 5.23 µM; with PC-3 prostate, 6.65 µM. The TGI in the assay on SK-MEL-2 melanoma was 8.52 µM; with TK-10 renal, 12.1 µM; in the assay with UACC-257 melanoma it was 7.09 µM; with UO-31 renal, 1.06 µM.
Turning to `COC(=O)C1=COC(C)C2CN3CCc4c([nH]c5cc(OC)c(OC)cc45)C3CC12` (stereo not drawn), the GI50 in the assay on CCRF-CEM leukemia is 41.7 µM and 13.6 µM; with HCT-116 colon, > 100 µM and 43.6 µM; in the assay on MCF7 breast, > 100 µM and 36.4 µM. The TGI is greater than 100 µM with CCRF-CEM leukemia; greater than 100 µM in the assay on HCT-116 colon; 66.6 µM and 65.9 µM in the assay with HL-60(TB) leukemia; greater than 100 µM in the assay on MCF7 breast; greater than 100 µM with MDA-MB-231 breast; greater than 100 µM in the assay on PC-3 prostate. For the same compound, the TGI in the assay with SK-MEL-2 melanoma, with TK-10 renal, in the assay with UACC-257 melanoma and in the assay with UO-31 renal was greater than 100 µM each time.
For `COc1ccc(Cn2cc3c(c2-c2ccccc2)CCc2cnoc2-3)cc1OC`, the GI50 with CCRF-CEM leukemia was 1.78 µM; with HCT-116 colon, 0.482 µM; with HL-60(TB) leukemia it was 0.299 µM; with MCF7 breast, 0.574 µM; with MDA-MB-231 breast, 2.13 µM; in the assay with PC-3 prostate, 3.08 µM. For the same compound, the GI50 in the assay on SK-MEL-2 melanoma was 0.735 µM; in the assay with TK-10 renal, 2.3 µM; in the assay with UACC-257 melanoma, 60.4 µM; in the assay with UO-31 renal, 2.24 µM. Besides, the TGI is greater than 100 µM in the assay on CCRF-CEM leukemia; greater than 100 µM with HCT-116 colon; 1.69 µM with HL-60(TB) leukemia; greater than 100 µM with MCF7 breast; greater than 100 µM in the assay with MDA-MB-231 breast; greater than 100 µM in the assay on PC-3 prostate. In addition, the TGI with SK-MEL-2 melanoma, with TK-10 renal, in the assay on UACC-257 melanoma and in the assay on UO-31 renal was greater than 100 µM each time.
As to `N/C(=N/N=C/c1ccccc1)N/N=C\c1ccccc1`, the GI50 in the assay on CCRF-CEM leukemia was 5.13 µM; in the assay on HCT-116 colon, 4.5 µM; in the assay with HL-60(TB) leukemia, 3.9 µM; in the assay with MCF7 breast, 3.4 µM; in the assay with MDA-MB-231 breast it was 10.5 µM; with PC-3 prostate, 6.21 µM. In addition, the GI50 was 3.58 µM in the assay on SK-MEL-2 melanoma, 10.7 µM with TK-10 renal, 7.5 µM with UACC-257 melanoma and 5.1 µM in the assay on UO-31 renal. The TGI with CCRF-CEM leukemia was greater than 100 µM; in the assay with HCT-116 colon it was greater than 100 µM; with HL-60(TB) leukemia it was 23 µM; with MCF7 breast, greater than 100 µM; in the assay with MDA-MB-231 breast, greater than 100 µM; with PC-3 prostate, greater than 100 µM. The TGI in the assay on SK-MEL-2 melanoma is 43.9 µM; in the assay on TK-10 renal, greater than 100 µM; with UACC-257 melanoma, 27.6 µM; in the assay with UO-31 renal, 78.3 µM.
For `C[C@@H]1CCC([C@@H](C)[C@H]2CC[C@H]3[C@@H]4CC[C@H]5C[C@@H](O)CC[C@]5(C)[C@H]4CC[C@]23C)=NC1`, the TGI with CCRF-CEM leukemia was greater than 100 µM; with HCT-116 colon, greater than 100 µM; in the assay with HL-60(TB) leukemia, greater than 21.2 µM; with MCF7 breast, greater than 54.8 µM; in the assay with MDA-MB-231 breast, greater than 84.6 µM; in the assay with PC-3 prostate, greater than 100 µM. Moreover, the TGI is 34.8 µM in the assay with SK-MEL-2 melanoma, greater than 100 µM in the assay on TK-10 renal, greater than 100 µM in the assay with UACC-257 melanoma and 46.3 µM in the assay with UO-31 renal.
